# Where two headings read alike, the source gives them in different places.
# Assays:
# HMC3 microglia cells = experiment: Cell proliferation (cytotoxicity) analysis with xCELLigence, HMC3; type: cell-based, human
# Description: (§1) Cell proliferation analysis was performed with xCELLigence Real-Time Cell Analysis System to assess TSA, RG108, givinostat, and rifampin concentrations for use in both models. Differentiated SH-SY5Y and HMC3 microglia cells were seeded at a 5x10^3 density per well and incubated 24 h until CI values reached a log phase. The system stopped at the end of 24 h, 100, 10 and 1 μM TSA, givinostat, RG108 and rifampin were applied on current media and the cell viability was tracked. […] Simultaneously, slope plots were drawn using the CI values at 24 and 48 hours, and the statistical significance of the values discovered by assuming the average CI values of the control wells to be 100% was calculated.
# [1] = test system: differentiated SH-SY5Y cells; experiment: Cell proliferation (cytotoxicity) analysis with xCELLigence, SH-SY5Y; type: cell-based, human
# Description: as §1
# [2] = test system: differentiated SH-SY5Y cells; experiment: Cell viability against Aβ-induced neurotoxicity, xCELLigence; type: cell-based, human
# Description: Pathological deterioration in AD is mainly associated with overproduction of the Aβ peptide and the Aβ (1–42) variant is the toxic form that is more predominant in Alzheimer’s patients. In this study, a modified oligomeric Aβ (1–42) neurotoxicity analysis protocol was applied in order to elucidate the effects of treatment groups on SH-SY5Y cell viability in the presence of Aβ [56]. In order to model Aβ-induced neurotoxicity in vitro, an oligomeric form of the Aβ1–42 peptide was prepared by diluting with ice-cold Ham’s F12 Nutrient Mixture medium dissolved in PBS containing 0.02 M NaOH at a final concentration of 50 μM and kept in a 37°C incubator for 7 days to form peptide aggregates prior to the experiments. 5x10^3 SH-SY5Y cells were differentiated inside the xCELLigence instrument for 5 days and treated with 100 nM TSA, RG108, givinostat, rifampin; 100 ng/ml LPS+IFN-ɣ or 1 μg/ml CFS+IFN-ɣ for 24 h in order to evaluate neuroprotection. The co-culture was performed in the same way as the neuroinflammation model. Neurotoxicity was obtained instead of neuroinflammation by diluting to 5 μM with fresh medium and adding Aβ1–42 aggregates to the wells for 24 h in 100 μl of medium. Cell viability data was then monitored for 24 h and analyzed within the instrument.
# [3] = test system: differentiated SH-SY5Y cells; experiment: Annexin V-PI staining of Aβ-induced cell death, flow cytometry; type: cell-based, human; settings: for Necrotic effect (Q5-UL): control 1.6%; for Apoptotic effect (early apoptosis + late apoptosis): control 1.9%; for Percentage of living cells (Live): control 96.5%
# Description: To determine neuronal apoptosis associated with Aβ exposure, 25x10^3 differentiated SH-SY5Y cells were seeded in 24-well plates and Aβ was applied. After 24 h, cells were trypsinized and staining was performed according to the CF 488A Annexin V and PI Apoptosis Kit (Biotium, USA, Cat. No: 30061) protocol. After washing the cells with 1xPBS, the working solution was prepared by diluting the PI with Annexin V binding buffer included in the kit. 5 μl Annexin V and 2 μl PI working solution were added to the centrifuge tubes and binded with 100 μl Annexin V binding buffer. After the samples were incubated for 30 minutes on ice and in the dark, 400 μl of Annexin V binding buffer was added to each tube and the samples were measured and analyzed in a BD Accuri™ C6 flow cytometry device.
# SH-SY5Y cells = experiment: Total ROS/Superoxide detection; type: cell-based, human; settings: for Increase of ROS levels compared to the control group: inducers without drug pretreatment (Aβ, pyocyanin, or both)
# Description: The Total ROS/Superoxide Detection Kit (ENZ-51010, Enzo) was used according to the kit process for evaluating the protective effects of the treatment groups on SH-SY5Y cells seeded at a 2x10^4 density per well in 96-well plates and Aβ was applied. ROS inhibitor N-acetyl cysteine (NAC) was applied at 5 mM concentration to negative control groups 30 minutes before the experiment and after incubation, 100 μL of “ROS/Superoxide Detection Solution” was added to the wells in the kit. The same procedure was done without the application of ROS inhibitor. Fluorometric analysis of stained cells was analyzed with Cytation 3 Cell Imaging Multi-Mode Reader (BioTek) using 490/525 nm and 550/620 nm filter sets.
# APP/PS1 mice = test system: APP/PS1 mice; set-up: method as in PMID 33397436; settings: cited from earlier work
# [4] = 24 h pretreatment (drugs 100 nM; CFS 1 μg/ml + IFN-γ; LPS 100 ng/ml + IFN-γ), then 5 μM Aβ (1–42) aggregates 24 h
# [5] = pretreatment (drugs 100 nM; LPS 100 ng/ml + IFN-γ; CFS 1 μg/ml + IFN-γ) + 5 μM Aβ 24 h
# [6] = 30 minutes NAC 5 mM, treated (drugs 100 nM; LPS 100 ng/ml; CFS 1 μg/ml, with IFN-γ) prior to Aβ exposure
# [7] = cells treated (drugs 100 nM; LPS 100 ng/ml; CFS 1 μg/ml, with IFN-γ) before exposure to Aβ, without NAC
Compound,"Reduction of HMC3 cell viability compared to the control group (HMC3 microglia cells; 1 μM (printed M), 24 hours) [%]","Reduction of HMC3 cell viability compared to the control group (HMC3 microglia cells; 1 μM (printed M), 48 hours) [%]","Reduction of HMC3 cell viability compared to the control group (HMC3 microglia cells; 10 μM, 24 hours) [%]","Reduction of HMC3 cell viability compared to the control group (HMC3 microglia cells; 10 μM, 48 hours) [%]","Reduction of HMC3 cell viability compared to the control group (HMC3 microglia cells; 100 μM, 24 hours) [%]","Reduction of HMC3 cell viability compared to the control group (HMC3 microglia cells; 100 μM, 48 hours) [%]","Reduction of differentiated SH-SY5Y cell viability ([1]; 1 μM, 24 hours) [%]","Reduction of differentiated SH-SY5Y cell viability ([1]; 1 μM, 48 hours) [%]","Reduction of differentiated SH-SY5Y cell viability ([1]; 10 μM, 24 hours) [%]","Reduction of differentiated SH-SY5Y cell viability ([1]; 10 μM, 48 hours) [%]","Reduction of differentiated SH-SY5Y cell viability ([1]; 100 μM, 24 hours) [%]","Reduction of differentiated SH-SY5Y cell viability ([1]; 100 μM, 48 hours) [%]","CI values compared to the control group [2, 4] [%]","Necrotic effect (Q5-UL) [3, 5] [%]","Apoptotic effect (early apoptosis + late apoptosis) [3, 5] [%]","Percentage of living cells (Live) [3, 5] [%]","Increase of total amount of ROS compared to the control group, with NAC (SH-SY5Y cells; [6]) [%]",Decrease of total ROS amount according to the Aβ group (SH-SY5Y cells; [7]) [%],Increase of ROS levels compared to the control group (SH-SY5Y cells; without NAC) [%],other results
"CCN(CC)Cc1ccc2cc(COC(=O)Nc3ccc(C(=O)NO)cc3)ccc2c1 [Givinostat, givinostat]",35.01,62.78,58.19,92.67,93.58,99.29,88.72,90.56,96.85,96.9,98.06,98.77,136.2,7.8,7.8,84.3,22.87,30.49,–,"IC50 (HMC3 microglia cells; Homo sapiens, HMC3, 24 h, from CI values at 24th hour, 1, 10 and 100 μM tested, read-out: IC50 Values 24h HMC3): 11800 nM; IC50 (HMC3 microglia cells; Homo sapiens, HMC3, 48 h, from CI values at 48th hour, 1, 10 and 100 μM tested, read-out: IC50 Values 48h HMC3): 539 nM; IC50 ([1]; Homo sapiens, SH-SY5Y, 24 h, from CI values at 24th hour, 1, 10 and 100 μM tested, read-out: IC50 Values 24h SH-SY5Y): 2780 nM; IC50 ([1]; Homo sapiens, SH-SY5Y, 48 h, from CI values at 48th hour, 1, 10 and 100 μM tested, read-out: IC50 Values 48h SH-SY5Y): 1420 nM; Reduction of cell viability compared to the Aβ positive control group ([3]; 100 nM + 5 μM Aβ): 0.5%; Increase of total amount of ROS compared to the control group (SH-SY5Y cells; cells treated (drugs 100 nM; LPS 100 ng/ml; CFS 1 μg/ml, with IFN-γ) before exposure to Aβ, without NAC, not significant): 13.09%"
Cn1c2cccc(=O)c-2nc2ccccc21 [pyocyanin],–,–,–,–,–,–,–,–,–,–,–,–,–,–,–,–,–,–,36.49,"Decrease of amount of ROS, with NAC (SH-SY5Y cells; 30 minutes NAC 5 mM, pyocyanin without Aβ): 0.85%"
"CC(/C=C/C(=O)NO)=C\[C@@H](C)C(=O)c1ccc(N(C)C)cc1 [TSA, Trichostatin A]",0.04,1.75,13.88,21.94,31.68,51.2,91.34,97.97,97.43,98.9,97.86,99.79,137,5.6,5.8,88.6,0.7,53.43,–,"IC50 (HMC3 microglia cells; from CI values at 48th hour, 1, 10 and 100 μM tested, read-out: IC50 Values 48h HMC3): 156 nM; IC50 ([1]; from CI values at 24th hour, 1, 10 and 100 μM tested, read-out: IC50 Values 24h SH-SY5Y): 596 nM; IC50 ([1]; from CI values at 48th hour, 1, 10 and 100 μM tested, read-out: IC50 Values 48h SH-SY5Y): 312 nM; Decrease of total amount of ROS compared to the control group (SH-SY5Y cells; cells treated with compounds (100 nM) before exposure to Aβ, without NAC): 9.85%; Effect on Aβ plaques and soluble Aβ oligomers in the brain (APP/PS1 mice): reduce Aβ plaques and soluble Aβ oligomers in the brain; Effect on learning and memory behaviors (APP/PS1 mice): improve learning and memory behaviors"
Aβ: oligomeric/aggregated Aβ1–42 peptide used at 5 μM to induce neurotoxicity,–,–,–,–,–,–,–,–,–,–,–,–,–,–,–,–,–,–,43.58,"CI values compared to the control group ([2]; 5 μM Aβ (1–42) aggregates alone, 24 h): 48.5%; Necrotic effect (Q5-UL) ([3]; 5 μM Aβ alone 24 h): 6.7%; Apoptotic effect (early apoptosis + late apoptosis) ([3]; 5 μM Aβ alone 24 h): 8.5%; Percentage of living cells (Live) ([3]; 5 μM Aβ alone 24 h): 84.8%; Increase of total amount of ROS compared to the control group, with NAC (SH-SY5Y cells; 30 minutes ROS inhibitor NAC 5 mM, inducers without drug pretreatment (Aβ, or Aβ with pyocyanin)): 6.62%"

# Source: publication PMC8631675, “Neuroprotective effects of some epigenetic modifying drugs’ on Chlamydia pneumoniae-induced neuroinflammation: A novel model” (PLoS ONE, 2021)
